Assays:
Format in all cases: in vivo
rice (Oryza saliva) [1] = test: Test C flooded paddy test; settings: for Rice plant response rating: Flooded Paddy, scale 0 to 100, 0 no effect, 100 complete control; for Plant response rating, Rice: flooded paddy test, scale 0 to 100 (0 no effect, 100 complete control)
Outline: (§1)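 Visual ratings (0 = no effect, 100 = complete control) were made 12–14 days after treatment, relative to greenhouse controls. Plants in the flooded paddy test were rice, smallflower flatsedge, duck salad and barnyardgrass, treated at the 2-leaf stage.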

[2] = tested on: smallflower flatsedge (Cyperus difformis); test: Test C flooded paddy test; settings: for Flatsedge plant response rating: Flooded Paddy, scale 0 to 100, 0 no effect, 100 complete control; for Plant response rating, Flatsedge: flooded paddy test, scale 0 to 100 (0 no effect, 100 complete control)
Outline: as §1

[3] = tested on: barnyardgrass (Echinochloa crus-galli); test: Test C flooded paddy test; settings: for Barnyardgrass plant response rating: Flooded Paddy, scale 0 to 100, 0 no effect, 100 complete control; for Plant response rating, Barnyardgrass: flooded paddy test, scale 0 to 100 (0 no effect, 100 complete control)
Outline: as §1

[4] = tested on: duck salad (Heteranthera limosa); test: Test C flooded paddy test; settings: for Ducksalad plant response rating: Flooded Paddy, scale 0 to 100, 0 no effect, 100 complete control; for Plant response rating, Ducksalad: flooded paddy test, scale 0 to 100 (0 no effect, 100 complete control)
Outline: as §1

corn (Zea mays) [5] = test: Test B preemergence
Source text: (§2) Seeds selected from barnyardgrass (Echinochloa crus-galli), Surinam grass (Brachiaria decumbens), cocklebur (Xanthium strumarium), corn (Zea mays), crabgrass (Digitaria sanguinalis), giant foxtail (Setaria faberii), lambsquarters (Chenopodium album), morning glory (Ipomoea hederacea), pigweed (Amaranthus retroflexus), rice (Oryza saliva) and velvetleaf (Abutilon theophrasti) were planted and treated preemergence with test chemicals formulated in a non-phytotoxic solvent mixture which included a surfactant.
(§3) At the same time, plants selected from these crop and weed species and also blackgrass (Alopecurus myosuroides), wheat (Triticum aestivum) and wild oat (Avena fatua) were treated with postemergence applications of test chemicals formulated in the same manner. Plants ranged in height from 2 to 18 cm (1- to 4-leaf stage) for postemergence treatments. Plant species in the flooded paddy test consisted of rice (Oryza saliva), smallflower flatsedge (Cyperus difformis), duck salad (Heteranthera limosa) and barnyardgrass (Echinochloa crus-galli) grown to the 2-leaf stage for testing. Treated plants and controls were maintained in a greenhouse for 13 to 15 days, after which time all species were compared to controls and visually evaluated. Plant response ratings, summarized in Table B, are based on a scale of 0 to 100 where 0 is no effect and 100 is complete control. A dash (-) response means no test result.

[6] = tested on: crabgrass (Digitaria sanguinalis); test: Test B preemergence
Source text: as §2, §3

[7] = tested on: Surinam grass (Brachiaria decumbens); test: Test B preemergence
Source text: as §2, §3

rice (Oryza saliva) [8] = test: Test B preemergence
Source text: as §2, §3

[9] = tested on: giant foxtail (Setaria faberii); test: Test B preemergence
Source text: as §2, §3

[10] = tested on: cocklebur (Xanthium strumarium); test: Test B preemergence
Source text: as §2, §3

[11] = tested on: pigweed (Amaranthus retroflexus); test: Test B preemergence
Source text: as §2, §3

[12] = tested on: barnyardgrass (Echinochloa crus-galli); test: Test B preemergence
Source text: as §2, §3

[13] = tested on: morning glory (Ipomoea hederacea); test: Test B preemergence
Source text: as §2, §3

[14] = tested on: velvetleaf (Abutilon theophrasti); test: Test B preemergence
Source text: as §2, §3

[15] = tested on: lambsquarters (Chenopodium album); test: Test B preemergence
Source text: as §2, §3

corn (Zea mays) [16] = test: Test B postemergence
Source text: as §2, §3

[17] = tested on: crabgrass (Digitaria sanguinalis); test: Test B postemergence
Source text: as §2, §3

[18] = tested on: Surinam grass (Brachiaria decumbens); test: Test B postemergence
Source text: as §2, §3

[19] = tested on: giant foxtail (Setaria faberii); test: Test B postemergence
Source text: as §2, §3

[20] = tested on: cocklebur (Xanthium strumarium); test: Test B postemergence
Source text: as §2, §3

[21] = tested on: pigweed (Amaranthus retroflexus); test: Test B postemergence
Source text: as §2, §3

[22] = tested on: barnyardgrass (Echinochloa crus-galli); test: Test B postemergence
Source text: as §2, §3

wild oat (Avena fatua) = test: Test B postemergence
Source text: as §2, §3

[23] = tested on: wheat (Triticum aestivum); test: Test B postemergence
Source text: as §2, §3

[24] = tested on: morning glory (Ipomoea hederacea); test: Test B postemergence
Source text: as §2, §3

[25] = tested on: blackgrass (Alopecurus myosuroides); test: Test B postemergence
Source text: as §2, §3

[26] = tested on: velvetleaf (Abutilon theophrasti); test: Test B postemergence
Source text: as §2, §3

[27] = tested on: lambsquarters (Chenopodium album); test: Test B postemergence
Source text: as §2, §3

[28] = Preemergence, Rate 500 g/ha, scale 0 to 100, 0 no effect, 100 complete control
[29] = preemergence, Rate 125 g/ha, scale of 0 to 100 where 0 is no effect and 100 is complete control, 13 to 15 days
[30] = Rate 125 g/ha, scale 0 to 100, 0 no effect, 100 complete control
[31] = Rate 500 g/ha, scale 0 to 100, 0 is no effect, 100 is complete control, 13 to 15 days
[32] = Rate 125 g/ha, scale 0 (no effect) to 100 (complete control), 13 to 15 days

CCCCC(CCCC)c1ccn(C2SCN(c3cccc(C(F)(F)F)c3)C2=O)n1 (centres unmarked) [Compound 116]
Rice plant response rating (rice (Oryza saliva) [1]; Rate 250 g/ha): 0 | Rice plant response rating (rice (Oryza saliva) [1]; Rate 500 g/ha): 0 | Plant response rating, Rice (rice (Oryza saliva) [1]; Rate 62 g/ha): 0 | Plant response rating, Rice (rice (Oryza saliva) [1]; Rate 125 g/ha): 0 | Flatsedge plant response rating ([2]; Rate 250 g/ha): 0 | Flatsedge plant response rating ([2]; Rate 500 g/ha): 0 | Plant response rating, Flatsedge ([2]; Rate 62 g/ha): 0 | Plant response rating, Flatsedge ([2]; Rate 125 g/ha): 0 | Barnyardgrass plant response rating ([3]; Rate 250 g/ha): 0 | Barnyardgrass plant response rating ([3]; Rate 500 g/ha): 0 | Plant response rating, Barnyardgrass ([3]; Rate 62 g/ha): 0 | Plant response rating, Barnyardgrass ([3]; Rate 125 g/ha): 0 | Ducksalad plant response rating ([4]; Rate 250 g/ha): 0 | Ducksalad plant response rating ([4]; Rate 500 g/ha): 0 | Plant response rating, Ducksalad ([4]; Rate 62 g/ha): 0 | Plant response rating, Ducksalad ([4]; Rate 125 g/ha): 0 | Plant response rating, Corn (corn (Zea mays) [5]; [28]): 0 | Plant response rating, Corn (corn (Zea mays) [5]; [29]): 0 | Plant response rating, Crabgrass [6, 28]: 0 | Plant response rating, Crabgrass [6, 29]: 0 | Plant response rating, Surinam grass [7, 28]: 0 | Plant response rating, Surinam grass [7, 29]: 0 | Plant response rating, Rice (rice (Oryza saliva) [8]; [28]): 0 | Plant response rating, Rice (rice (Oryza saliva) [8]; [29]): 0 | Plant response rating, Foxtail, Giant [9, 28]: 0 | Plant response rating, Foxtail, Giant [9, 29]: 0 | Plant response rating, Cocklebur [10, 28]: 0 | Plant response rating, Cocklebur [10, 29]: 0 | Plant response rating, Pigweed [11, 28]: 0 | Plant response rating, Pigweed [11, 29]: 0 | Plant response rating, Barnyardgrass [12, 28]: 0 | Plant response rating, Barnyardgrass [12, 29]: 0 | Plant response rating, Morningglory [13, 28]: 0 | Plant response rating, Morningglory [13, 29]: 0 | Plant response rating, Velvetleaf [14, 28]: 0 | Plant response rating, Velvetleaf [14, 29]: 0 | Plant response rating, Lambsquarters [15, 28]: 0 | Plant response rating, Lambsquarters [15, 29]: 0 | Plant response rating, Corn (corn (Zea mays) [16]; [30]): 20 | Plant response rating, Corn (corn (Zea mays) [16]; [31]): 20 | Plant response rating, Crabgrass [17, 30]: 20 | Plant response rating, Crabgrass [17, 31]: 40 | Plant response rating, Surinam grass [18, 30]: 0 | Plant response rating, Surinam grass [18, 31]: 20 | Plant response rating, Foxtail, Giant [19, 30]: 0 | Plant response rating, Foxtail, Giant [19, 31]: 0 | Plant response rating, Cocklebur [20, 30]: 30 | Plant response rating, Cocklebur [20, 31]: 50 | Plant response rating, Pigweed [21, 30]: 50 | Plant response rating, Pigweed [21, 31]: 70 | Plant response rating, Barnyardgrass [22, 30]: 0 | Plant response rating, Barnyardgrass [22, 31]: 20 | Plant response rating, Wild Oat (wild oat (Avena fatua); [30]): 30 | Plant response rating, Wild Oat (wild oat (Avena fatua); [31]): 50 | Plant response rating, Wheat [23, 30]: 20 | Plant response rating, Wheat [23, 31]: 20 | Plant response rating, Morningglory [24, 30]: 30 | Plant response rating, Morningglory [24, 31]: 30 | Plant response rating, Blackgrass [25, 30]: 0 | Plant response rating, Blackgrass [25, 31]: 60 | Plant response rating, Velvetleaf [26, 30]: 20 | Plant response rating, Velvetleaf [26, 31]: 30 | Plant response rating, Lambsquarters [27, 30]: 70 | Plant response rating, Lambsquarters [27, 31]: 90

Cc1ccc(N2CCC(n3ccc(C(C)(C)C)n3)C2=O)cc1OC(C)C (centres unmarked) [Compound 110]
Rice plant response rating (rice (Oryza saliva) [1]; Rate 250 g/ha): 70 | Rice plant response rating (rice (Oryza saliva) [1]; Rate 500 g/ha): 80 | Plant response rating, Rice (rice (Oryza saliva) [1]; Rate 62 g/ha): 0 | Plant response rating, Rice (rice (Oryza saliva) [1]; Rate 125 g/ha): 30 | Flatsedge plant response rating ([2]; Rate 250 g/ha): 100 | Flatsedge plant response rating ([2]; Rate 500 g/ha): 100 | Plant response rating, Flatsedge ([2]; Rate 62 g/ha): 50 | Plant response rating, Flatsedge ([2]; Rate 125 g/ha): 50 | Barnyardgrass plant response rating ([3]; Rate 250 g/ha): 70 | Barnyardgrass plant response rating ([3]; Rate 500 g/ha): 80 | Plant response rating, Barnyardgrass ([3]; Rate 62 g/ha): 0 | Plant response rating, Barnyardgrass ([3]; Rate 125 g/ha): 0 | Ducksalad plant response rating ([4]; Rate 250 g/ha): 70 | Ducksalad plant response rating ([4]; Rate 500 g/ha): 70 | Plant response rating, Ducksalad ([4]; Rate 62 g/ha): 10 | Plant response rating, Ducksalad ([4]; Rate 125 g/ha): 20 | Plant response rating, Corn (corn (Zea mays) [5]; [28]): 0 | Plant response rating, Corn (corn (Zea mays) [5]; [29]): 0 | Plant response rating, Crabgrass [6, 28]: 100 | Plant response rating, Crabgrass [6, 29]: 100 | Plant response rating, Surinam grass [7, 28]: 40 | Plant response rating, Surinam grass [7, 29]: 0 | Plant response rating, Rice (rice (Oryza saliva) [8]; [28]): 0 | Plant response rating, Rice (rice (Oryza saliva) [8]; [29]): 0 | Plant response rating, Foxtail, Giant [9, 28]: 50 | Plant response rating, Foxtail, Giant [9, 29]: 0 | Plant response rating, Cocklebur [10, 28]: 70 | Plant response rating, Cocklebur [10, 29]: 0 | Plant response rating, Pigweed [11, 28]: 100 | Plant response rating, Pigweed [11, 29]: 100 | Plant response rating, Barnyardgrass [12, 28]: 0 | Plant response rating, Barnyardgrass [12, 29]: 30 | Plant response rating, Morningglory [13, 28]: 0 | Plant response rating, Morningglory [13, 29]: 0 | Plant response rating, Velvetleaf [14, 28]: 80 | Plant response rating, Velvetleaf [14, 29]: 0 | Plant response rating, Lambsquarters [15, 28]: 100 | Plant response rating, Lambsquarters [15, 29]: 0 | Plant response rating, Corn (corn (Zea mays) [16]; [32]): 0 | Plant response rating, Corn (corn (Zea mays) [16]; [31]): 0 | Plant response rating, Crabgrass [17, 32]: 0 | Plant response rating, Crabgrass [17, 31]: 0 | Plant response rating, Surinam grass [18, 32]: 0 | Plant response rating, Surinam grass [18, 31]: 0 | Plant response rating, Foxtail, Giant [19, 32]: 0 | Plant response rating, Foxtail, Giant [19, 31]: 0 | Plant response rating, Cocklebur [20, 32]: 30 | Plant response rating, Cocklebur [20, 31]: 30 | Plant response rating, Pigweed [21, 31]: 70 | Plant response rating, Barnyardgrass [22, 32]: 0 | Plant response rating, Barnyardgrass [22, 31]: 0 | Plant response rating, Wild Oat (wild oat (Avena fatua); [31]): 0 | Plant response rating, Wheat [23, 31]: 0 | Plant response rating, Morningglory [24, 31]: 60 | Plant response rating, Blackgrass [25, 32]: 0 | Plant response rating, Blackgrass [25, 31]: 0 | Plant response rating, Velvetleaf [26, 31]: 70 | Plant response rating, Lambsquarters [27, 31]: 90
